Measurements from patent US5451584A, “N-alkynyl carboxamides as sertonergic agents” (American Home Products Corporation, priority 1994, dated 1995).

Legend:
[1] = biological target: T1, 5-HT1A serotonin receptor (Rattus norvegicus, UniProt P19327); conditions: buspirone, standard for anxiolytic activity; cited from earlier work
T1 construct: from tissue; inferred from the cited Hall et al. 1985 procedure
T1 sequence (P19327 1-422): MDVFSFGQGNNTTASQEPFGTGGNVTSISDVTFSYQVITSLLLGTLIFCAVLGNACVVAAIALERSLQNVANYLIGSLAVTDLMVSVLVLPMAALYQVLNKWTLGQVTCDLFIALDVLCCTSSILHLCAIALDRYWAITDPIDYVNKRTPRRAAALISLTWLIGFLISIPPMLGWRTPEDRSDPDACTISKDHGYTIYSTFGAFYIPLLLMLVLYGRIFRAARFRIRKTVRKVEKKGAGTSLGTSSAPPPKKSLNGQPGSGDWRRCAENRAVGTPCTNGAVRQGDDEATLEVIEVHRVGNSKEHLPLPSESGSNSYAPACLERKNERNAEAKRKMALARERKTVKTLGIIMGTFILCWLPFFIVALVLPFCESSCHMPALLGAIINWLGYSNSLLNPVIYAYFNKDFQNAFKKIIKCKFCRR

[2] = biological target: T1, 5-HT1A serotonin receptor; experiment: displacement of [^3 H] 8-OHDPAT (dipropylaminotetralin) from the 5-HT1A serotonin receptor; conditions: procedure of Hall et al., read-out: 5-HT1A Binding (IC50)
Procedure: The compounds of this invention are prepared by conventional methods. For example, the appropriately substituted "acid" is transformed in the presence of a coupling agent like N,N-bis(2-oxo-3-oxazolidinyl)phosphoramidic chloride to yield the desired products ( 1 ). [drawing 3] High affinity for the serotonin 5-HT1A receptor was established by testing the claimed compound's ability to displace [^3 H] 8-OHDPAT (dipropylaminotetralin) from the 5-HT1A serotonin receptor following the procedure of Hall et al., J. Neurochem. 44, 1685 (1985). […] The anxiolytic activity of buspirone is believed to be, at least partially, due to its 5-HT1A receptor affinity (Vander Maclen et al., Eur. J. Pharmacol. 1986, 129 (1-2) […]).

Row | IC50 [2] | SMILES | affinity for the 5-HT1A serotonin receptor subtype (in words) [1]
1 |  | O=C1CC2(CCCC2)CC(=O)N1CCCCN1CCN(c2ncccn2)CC1 [buspirone] | potent affinity
2 | 0.0449 µM | C#CCNC(=O)C(CCN1CCN(c2ccccc2OC)CC1)c1ccccc1 (stereo not drawn) [Example 1, 4-[4-(2-Methoxy-phenyl)-piperazin-1]-2-phenyl-N-prop-2-ynyl-butyramide] | 
3 | 0.0194 µM | C#CCN(C)C(=O)C(CCN1CCN(c2ccccc2OC)CC1)c1ccccc1 (stereo not drawn) [Example 2, 4-[4-(2-Methoxy-phenyl)-piperazin-1-yl]-N-methyl-2-phenyl-N-prop-2-ynyl-butyramide] | 
